In data set [1] the target is T1, androgen receptor (Homo sapiens, UniProt P10275).
T1 sequence (P10275 1-920): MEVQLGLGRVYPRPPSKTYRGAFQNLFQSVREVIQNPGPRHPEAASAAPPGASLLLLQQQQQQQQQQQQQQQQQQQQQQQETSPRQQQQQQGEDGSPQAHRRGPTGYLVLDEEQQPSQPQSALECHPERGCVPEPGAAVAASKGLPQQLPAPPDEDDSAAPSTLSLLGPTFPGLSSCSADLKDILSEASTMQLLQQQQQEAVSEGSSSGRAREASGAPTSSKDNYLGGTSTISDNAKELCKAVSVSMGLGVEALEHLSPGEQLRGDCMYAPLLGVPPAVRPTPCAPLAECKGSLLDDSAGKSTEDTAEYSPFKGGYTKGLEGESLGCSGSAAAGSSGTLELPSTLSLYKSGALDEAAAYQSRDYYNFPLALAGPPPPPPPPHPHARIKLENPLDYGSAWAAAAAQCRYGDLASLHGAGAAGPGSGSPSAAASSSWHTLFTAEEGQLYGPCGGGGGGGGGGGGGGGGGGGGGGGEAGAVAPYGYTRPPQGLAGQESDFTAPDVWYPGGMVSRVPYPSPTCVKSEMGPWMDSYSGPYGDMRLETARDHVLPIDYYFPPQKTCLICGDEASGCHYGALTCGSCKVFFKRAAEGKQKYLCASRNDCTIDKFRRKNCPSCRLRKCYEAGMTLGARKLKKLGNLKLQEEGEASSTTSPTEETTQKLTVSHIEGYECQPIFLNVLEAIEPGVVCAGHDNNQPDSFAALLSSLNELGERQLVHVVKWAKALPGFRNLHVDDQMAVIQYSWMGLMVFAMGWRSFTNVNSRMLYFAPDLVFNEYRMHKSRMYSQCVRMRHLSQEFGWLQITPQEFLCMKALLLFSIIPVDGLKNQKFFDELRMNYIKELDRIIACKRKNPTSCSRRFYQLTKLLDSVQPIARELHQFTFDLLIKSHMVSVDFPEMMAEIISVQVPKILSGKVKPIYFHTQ
As to the kind of experiment: Yeast two-hybrid screening of unbiased X15 peptide library, ligand-induced β-galactosidase activity (FIG. 3, Table 503). Further details: expressed in transfected cells; host or cells: Saccharomyces cerevisiae PJ69-4α. The data set is classed as cell-based. The conditions noted are these: for Yeast Specificity Graph (FIG. 3): CPA: ligand CPA; for Yeast Specificity Graph (FIG. 3): DHT: ligand DHT; for Yeast Specificity Graph (FIG. 3): RU: ligand RU; for Yeast Specificity Graph (FIG. 3): No Lig: no ligand. From the text: Our library contained predominantly 15 random amino acid residues/peptide in order to identify motifs that might interact with nuclear receptor domains. If ligand is provided to the cells, one can screen for peptides that interact with the ligand-bound receptor. […] Included at the ends of the oligonucleotide were the synthetic restriction endonuclease cleavage sites, EcoRI or Mfe I (5′ end) and Sal I (3′ end). Oligonucleotides were annealed, then cleaved with excess restriction endonuclease and purified on agarose gels. The purified set of oligonucleotides was subcloned as an in-frame carboxy-terminal fusion to a Gal4 DNA binding domain (plasmid vector pMA424 derivative). […] The transformation mix was divided and grown on plates of selective media containing ligand and 25 mM 3-aminotriazole at 30° C. until colonies appeared in 3-7 days. […] Dihydrotestosterone (DHT) and medroxyprogesterone (MPA) were added to the media at 100 nM to identify peptides that interact with the receptor in the presence of ligand. After colonies appeared they were picked and dispersed into individual wells of a 96-well plate containing rich media (YPD).
To determine ligand dependence, two microliter aliquots were removed from the cell suspension, and arrayed and spotted onto each of two rectangular agar plates, one with 100 nM ligand and one without ligand. Growth was monitored daily.
A secondary test of ligand dependent activation was performed using the integrated GAL4-driven lacZ gene. Cell suspensions of the initial positive clones were diluted 20-fold into 20 microliters of rich media in a microplate and grown overnight at 30° C. in the presence and absence of ligand. Microplates were centrifuged for 5 minutes at 3000 rpm in a swinging table top centrifuge to pellet the yeast cells, and the overlying media was aspirated. […] An OD650 density determination was made to normalize the β-galactosidase activity. β-galactosidase activity was monitored following the addition of buffer containing chlorophenol red-1-galactopyranoside (CPRG) (Boehringer Mannheim) substrate at a final concentration of 0.5 mM. […] The maximum slope value of this measurement was normalized to cell density from the initial OD650 value, and the relative ligand dependence of β-galactosidase was determined by comparing the values plus and minus ligand.
In FIG. 3, all of these ligands were tested. The plasmids from true positives were extracted using standard yeast extraction protocols and re-transformed to verify the positive phenotype.

The target of data set [2] is T1, androgen receptor. The class given is cell-based. The conditions noted are these: for Mammalian Cell Specificity Graph (FIG. 4): DHT: ligand DHT; for Mammalian Cell Specificity Graph (FIG. 4): MPA: ligand MPA; for Mammalian Cell Specificity Graph (FIG. 4): RU486: ligand RU486. Also on record: expressed in transfected cells. The text has this:
We used a mammalian two-hybrid system to determine specificities of the AR-binding peptides previously identified, through screening of the aforementioned yeast library, as ligand-dependent in their binding activity. Ligand was provided to the cells so the interaction could be observed. The human hepatoma cell line, Huh-7, was used as the recipient of two-hybrid vectors, pM and pVP16 (Clontech) (FIGS. 6A and 6B), containing fusions with peptide and AR, respectively. According to Clontech literature, the Clontech vectors pM and VP16 generate fusions of protein X with the GAL4 DNA-BD and fusions of protein Y with the VP16AD, in the Mammalian MM Two-Hybrid Assay Kit (#K1602-1). (Note: pM and VP16 contain unique cloning sites in the same order and reading frame as the DNA-BD and AD, respectively, vectors in the yeast […] Two-Hybrid Systems.) A third vector, pG5CAT, provides a CAT reporter gene under the control of a GAL4-responsive element and minimal promoter of the adenovirus E1b. The three vectors are cotransfected into any suitable mammalian host cell line by standard methods. The interaction between proteins X and Y is then assayed by measuring CAT gene expression by any standard method. In the absence-of activation (i.e., no protein-protein interaction), the minimal E1b promoter will not express significant levels of CAT.
Briefly, cells are seeded in a 24-well culture plate to a density of 50-80% confluence in phenol red-free media containing charcoal-dextran stripped fetal bovine serum (10%). Following incubation overnight, cells are transfected with plasmids pM-peptide, pVP16-AR, pCMV-b-gal, and p5XGAL-Luc3 DNAs using lipofectamine 2000 (LifeTech) according to the manufacturer's protocol. Transfections are allowed to proceed for 6 hours and the transfection media is aspirated and replaced with recovery media for 18 hours. Following the recovery period, cells are treated with compound for 24 hours prior to cell harvesting. Cells are washed with PBS and then lysed using the lysis buffer from the Galacto-Light Plus β-galactosidase assay kit (Tropix). Assays for luciferase and β-galactosidase were performed as described by the manufacturer. Peptide/AR interactions are described in terms of the luciferase activity normalized for transfection efficiency using β-galactosidase activity (see FIG. 4A). Two types of useful information arose from these methods: 1) we generated a panel of useful peptide probes to analyze the conformational state of AR, and 2) we “fingerprinted” AR modulators with respect to AR conformation (FIG. 4B). […] FIG. 4B is the converse of 4A. It compares the ability of six ligands (DHT, MPA, CYP, RU486, FLUT and DHEAs to interact with AR in the presence of each of four peptides (D30, 5G11, B8H3 and […]). Thus, it is a “fingerprint” of each of the six ligands using a four peptide panel. (Note that “1269” and D30″ refer to the same peptide.)

The target of the next data set is T2, ER α (UniProt P03372 1-595, limits assumed).
T2 construct: also called estrogen receptor α; ERα-ERE
T2 sequence (looked up): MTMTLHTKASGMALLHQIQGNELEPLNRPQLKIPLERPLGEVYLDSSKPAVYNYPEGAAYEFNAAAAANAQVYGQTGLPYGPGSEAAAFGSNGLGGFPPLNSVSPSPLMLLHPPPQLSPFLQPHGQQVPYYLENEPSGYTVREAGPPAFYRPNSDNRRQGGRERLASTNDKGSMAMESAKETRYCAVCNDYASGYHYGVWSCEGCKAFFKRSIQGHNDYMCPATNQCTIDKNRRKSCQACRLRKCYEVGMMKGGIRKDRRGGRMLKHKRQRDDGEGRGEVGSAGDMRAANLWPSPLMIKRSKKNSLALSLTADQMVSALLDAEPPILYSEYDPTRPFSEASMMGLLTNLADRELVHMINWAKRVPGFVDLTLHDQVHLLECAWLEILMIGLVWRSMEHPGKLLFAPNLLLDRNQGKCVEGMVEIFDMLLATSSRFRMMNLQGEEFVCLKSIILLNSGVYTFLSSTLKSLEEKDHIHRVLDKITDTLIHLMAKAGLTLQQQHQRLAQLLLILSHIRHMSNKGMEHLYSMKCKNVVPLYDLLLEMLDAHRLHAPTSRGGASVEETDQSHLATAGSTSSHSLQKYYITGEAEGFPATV
The experiment in a line: phage isolated on ERα-ERE; Estradiol.

No end group written: not given here.

Turning to EFRSSVFEQMYLCTGGSLDLOPS* [B5G11], on androgen receptor [1], the “Yeast Specificity Graph (FIG. 3): CPA” value is on record as 0.9726, the “Yeast Specificity Graph (FIG. 3): DHT” value is 3.964, the “Yeast Specificity Graph (FIG. 3): RU” value is listed as 0.9 and the “Yeast Specificity Graph (FIG. 3): No Lig” value worked out at 0.6382. Moreover, on androgen receptor [2], the “Mammalian Cell Specificity Graph (FIG. 4): CYP.” value was 4.462 Relative Light Units, the “Mammalian Cell Specificity Graph (FIG. 4): DHT” value came to 15.84 Relative Light Units, the “Mammalian Cell Specificity Graph (FIG. 4): MPA” value was 8.029 Relative Light Units and the “Mammalian Cell Specificity Graph (FIG. 4): RU486” value stood at 0.1051 Relative Light Units. Further, the “Mammalian Cell Specificity Graph (FIG. 4): no compound” value on androgen receptor [2] came out at 0.05028 Relative Light Units.

Consider HPTHSSRLWELLMEATPTM [D30], for which, on androgen receptor [2], the “Mammalian Cell Specificity Graph (FIG. 4): CYP.” value is listed as 11.18 Relative Light Units, the “Mammalian Cell Specificity Graph (FIG. 4): DHT” value was determined as 12.59 Relative Light Units, the “Mammalian Cell Specificity Graph (FIG. 4): MPA” value is reported as 15.62 Relative Light Units and the “Mammalian Cell Specificity Graph (FIG. 4): RU486” value was 0.8461 Relative Light Units. For the same molecule, at androgen receptor [2], the “Mammalian Cell Specificity Graph (FIG. 4): no compound” value was determined as 0.03854 Relative Light Units.

On to EFHSRLRVEVVSWGIGSTCSQANSGRISYDL* [B8H3], for which, on androgen receptor [1], the Fold induction was 22, the “Yeast Specificity Graph (FIG. 3): CPA” value came out at 0.3927, the “Yeast Specificity Graph (FIG. 3): DHT” value came to 3.807 and the “Yeast Specificity Graph (FIG. 3): RU” value is recorded as −0.0. In addition, at androgen receptor [1], the “Yeast Specificity Graph (FIG. 3): No Lig” value was 0.1737. In addition, at androgen receptor [2], the “Mammalian Cell Specificity Graph (FIG. 4): CYP.” value was 10.47 Relative Light Units, the “Mammalian Cell Specificity Graph (FIG. 4): DHT” value is listed as 11.6 Relative Light Units, the “Mammalian Cell Specificity Graph (FIG. 4): MPA” value turned out to be 11.33 Relative Light Units and the “Mammalian Cell Specificity Graph (FIG. 4): RU486” value amounted to 3.879 Relative Light Units. In addition, the “Mammalian Cell Specificity Graph (FIG. 4): no compound” value on androgen receptor [2] came out at 0.1316 Relative Light Units.

B1: 15E (peptide)
peptide: HSHSPLLMALLAPPGG
Take B1: the binding result in the data set with ER α is “binds”.

B2: 8E (peptide)
peptide: SSRLLACELMYEDADVCSR
In the case of B2, the binding result in the data set with ER α is on record as “binds”.

B3: 5E (peptide)
peptide: SRLEELLLMDFWRSR
Take B3: in the data set with ER α, the binding result was “binds”.

B4: 9E (peptide)
peptide: SSHGILWRLLSEGSR
Take B4: the binding result with ER α is on record as “binds”.

B5: 6E (peptide)
peptide: SSKLWQLLSSPIDSR
For B5, the binding result with ER α is listed as “binds”.

B6: 10E (peptide)
peptide: SRLEYYLRLGTYESR
In the case of B6, the binding result with ER α is recorded as “binds”.

B7: 3E (peptide)
peptide: SSTGILWKLLTAESR
B7: the binding result with ER α is listed as “binds”.

B8: 4E (peptide)
peptide: SRLVALLKSPWSVSR
As for B8, in the data set with ER α, the binding result is “binds”.

B9: 2E (peptide)
peptide: SRSPILTHLLSLGSR
With B9, the binding result in the data set with ER α is reported as “binds”.

B10: 13E (peptide)
peptide: SSCLREILLYGACSR
modifications: not fully specified; cysteine pairing not given here
B10: the binding result with ER α is listed as “binds”.

B11: E1-4 (peptide)
peptide: HSHPLPPLLSRLLTGG
Take B11: the binding result in the data set with ER α was “binds”.

B12: 7E (peptide)
peptide: SRSLLMDMLMSDDYVTVSR
B12: the binding result with ER α is “binds”.

B13: E1-3 (peptide)
peptide: HSHPHHSHLLYKLMGG
As to B13, in the data set with ER α, the binding result is on record as “binds”.

B14: E1-1 (peptide)
peptide: HSHNHHSPWLFRLLGG
With B14, the binding result with ER α is on record as “binds”.

B15: E1-7 (peptide)
peptide: SRLTCLLQSNGWDSEQCSR
In the case of B15, the binding result in the data set with ER α is “binds”.

Values taken from patent US20040043420A1, “Method of identifying conformation-sensitive binding peptides and uses thereof” (priority 2003, published 2004).
